Test results: patent US20100035993A1, “METHODS AND COMPOSITIONS COMPRISING 2-[(3-CHLOROPHENYL) AMINO] PHENYLACETIC ACID FOR HYPERPERMEABILITY AND NEOVASCULARIZATION DISORDERS OF THE RETINA” (priority 2008, published 2010)

What was measured:
VEGF = VEGF in vitreous of streptozotocin-diabetic rats, immunoassay; assay type: in vivo, rat; conditions: vitreous of male streptozotocin-diabetic rats treated for 26 weeks with 15 mg/kg/day by gavage; Normal Control 75, Diabetic Control 167
Procedure: (§1) Vitreous was harvested from male rats that were rendered diabetic by intravenous injection of streptozotocin and that were treated for 26 weeks with 23CPPA (15 mg/kg/day) administered by gavage, and from age and gender matched diabetic and nondiabetic control rats. PEDF and VEGF were measured by immunoassay. The relative ratio of VEGF to PEDF in diabetic control rats and diabetic rats treated with 23CPPA was compared to that in nondiabetic control rats which was assigned an arbitrary value of 1.0.

PEDF = PEDF in vitreous of streptozotocin-diabetic rats, immunoassay; assay type: in vivo, rat; conditions: vitreous of male streptozotocin-diabetic rats treated for 26 weeks with 15 mg/kg/day by gavage; Normal Control 15.3, Diabetic Control 4.6
Procedure: as §1

O=C(O)Cc1ccccc1Nc1cccc(Cl)c1 [23CPPA, 2-[(3-chlorophenyl)amino]phenylacetic acid]
VEGF (VEGF): 105 pg/mL
PEDF (PEDF): 8.7 ng/mL
